Laboratory results published in US20260183277A1, “ANTIVIRAL PHARMACEUTICAL COMPOSITION COMPRISING ERRy INHIBITOR AS ACTIVE INGREDIENT” (priority 2024, published 2026).

Test system: SARS-CoV-2 KCDC03
Assay type: cell-based

## CC(C)N1CCN(c2ccc(/C(=C(/CCCO)c3ccccc3)c3ccc(O)cc3)cc2)CC1 [DN200434]
  genome replication, progeny production, and protein synthesis of SARS-CoV-2: effectively suppressed
